Test results as given in patent publication US11225459B2, “Substituted bisphenylalkylurea compounds and methods” (TEXAS TECH UNIVERSITY SYSTEM, priority 2017, dated 2022).

Key:
H1 receptor = H1 receptor (Homo sapiens, UniProt P35367); assay: H1 R inhibition (Ki); type: binding; conditions: FIG. 5
From the text: FIG. 5 depicts a graph showing H1 R inhibition (Ki) of compound of the present disclosure designated as Formula I (AZ2-57).

HUVEC cells = assay: Ca2+ release assay (HUVEC cells); type: cell-based; conditions: FIG. 7
From the text: FIG. 7 depicts a graph showing Ca2+ release assay (HUVEC cells) of compound of the present disclosure designated as Formula I (AZ2-57).
Unlike many other DAT inhibitors on the market, our compound has very limited interaction with other GPCR receptors, reducing potential CNS-induced toxicity. It is thus an embodiment of the present disclosure to further show effect on microglia-induced immune response (chronic inflammation), dopamine surge in the presence of Formula I (AZ2-57).

H2 receptor = H2 receptor (Homo sapiens, UniProt P25021); assay: H2 R inhibition (Ki); type: binding; conditions: FIG. 6
From the text: FIG. 6 depicts a graph showing H2 R inhibition (Ki) of compound of the present disclosure designated as Formula I (AZ2-57).

[1] = biological target: Dopamine Transporter (DAT) (Homo sapiens, UniProt Q01959); assay: DAT inhibition (Ki), in vitro; type: binding; conditions: FIG. 4
From the text: FIG. 4 depicts a graph showing DAT inhibition (Ki) of compound of the present disclosure designated Formula I (AZ2-57).
In one embodiment, compound of the present disclosure Formula I (AZ2-57) is shown in in vitro studies to show DAT inhibition (see FIG. 4).

H1 receptor, sequence (P35367 whole entry): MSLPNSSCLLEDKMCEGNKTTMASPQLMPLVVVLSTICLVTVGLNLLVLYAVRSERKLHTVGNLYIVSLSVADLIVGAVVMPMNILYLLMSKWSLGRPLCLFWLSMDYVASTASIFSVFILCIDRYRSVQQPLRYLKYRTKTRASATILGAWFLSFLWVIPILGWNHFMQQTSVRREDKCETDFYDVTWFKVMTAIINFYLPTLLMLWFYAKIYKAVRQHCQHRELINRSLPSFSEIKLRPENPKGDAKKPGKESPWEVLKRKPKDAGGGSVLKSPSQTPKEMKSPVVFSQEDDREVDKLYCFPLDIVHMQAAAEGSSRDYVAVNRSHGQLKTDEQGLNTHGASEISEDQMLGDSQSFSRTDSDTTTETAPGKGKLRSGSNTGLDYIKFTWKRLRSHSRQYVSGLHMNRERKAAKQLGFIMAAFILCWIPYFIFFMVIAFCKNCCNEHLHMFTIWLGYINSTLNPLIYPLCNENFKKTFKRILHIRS
H2 receptor, sequence (P25021 whole entry): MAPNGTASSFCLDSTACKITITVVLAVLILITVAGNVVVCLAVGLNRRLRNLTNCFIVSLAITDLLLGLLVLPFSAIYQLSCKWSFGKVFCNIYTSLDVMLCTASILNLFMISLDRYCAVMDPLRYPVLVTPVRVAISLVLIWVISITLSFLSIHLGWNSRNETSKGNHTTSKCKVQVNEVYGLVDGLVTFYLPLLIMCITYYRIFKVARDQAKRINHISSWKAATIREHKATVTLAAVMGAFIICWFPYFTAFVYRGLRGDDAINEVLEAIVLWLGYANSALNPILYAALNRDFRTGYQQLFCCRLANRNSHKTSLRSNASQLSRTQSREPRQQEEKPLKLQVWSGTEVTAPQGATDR
Dopamine Transporter (DAT), sequence (Q01959 whole entry, species assumed): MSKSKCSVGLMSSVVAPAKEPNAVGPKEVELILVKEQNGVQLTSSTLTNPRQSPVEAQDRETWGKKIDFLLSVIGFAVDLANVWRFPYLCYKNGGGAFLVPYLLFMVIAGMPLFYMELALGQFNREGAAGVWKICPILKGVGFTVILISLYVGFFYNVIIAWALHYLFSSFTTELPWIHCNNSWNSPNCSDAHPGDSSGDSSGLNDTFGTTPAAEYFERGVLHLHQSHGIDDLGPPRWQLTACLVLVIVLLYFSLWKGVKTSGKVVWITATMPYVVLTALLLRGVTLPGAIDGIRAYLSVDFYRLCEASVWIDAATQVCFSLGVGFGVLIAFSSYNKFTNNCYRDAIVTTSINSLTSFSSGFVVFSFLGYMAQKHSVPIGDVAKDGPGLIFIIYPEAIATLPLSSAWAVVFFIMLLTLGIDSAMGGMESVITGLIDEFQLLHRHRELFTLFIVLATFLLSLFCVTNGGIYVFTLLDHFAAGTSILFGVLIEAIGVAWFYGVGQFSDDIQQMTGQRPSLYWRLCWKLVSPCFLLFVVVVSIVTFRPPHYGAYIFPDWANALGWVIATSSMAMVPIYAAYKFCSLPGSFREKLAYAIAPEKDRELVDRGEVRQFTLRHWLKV

Ki (H1 receptor): 32 nM
inhibition of H1 receptor (H1 receptor): 65.4%
Ki (H2 receptor): 1750 nM
inhibition of H2 receptor (H2 receptor): 54%
Ki [1]: 5.2 nM
Compound: O=C(NCCCCC(c1ccc(F)cc1)c1ccc(F)cc1)Nc1ccc(Cl)cc1 [AZ2-57, 1-(5,5-bis(4-fluorophenyl)pentyl)-3-(4-chlorophenyl)urea]
Ca2+ release (HUVEC cells): effectively manipulated
